{"source": "patent US7118899B2", "about": "“Detection of transmembrane potentials by optical methods” (The Regents of the University of California, priority 2001, dated 2006)", "key": {"L-M(TK^−) cells [1]": {"tested_on": "L-M(TK^−) cells", "test": "Oxonol displacement currents (membrane translocation), whole-cell voltage clamp", "type": "cell-based", "conditions": "for translocation time constant: voltage clamped mammalian cells", "procedure": "(§1) All cells were grown and handled like L-M(TK^−) except where noted. L-M(TK^−) cells were grown in Dulbecco's Modified Eagle Media (Gibco; Grand Island, N.Y.) with 10% fetal bovine serum (FBS) and 1% penicillin streptomycin (PS) (Gemini; Calabasas, Calif.). B104 cells were differentiated with 1 μM retinoic acid for 5 days prior to use. The cells were plated on glass coverslips at least one day before use. The adherent cells were washed and maintained in 2.5–3.0 mL of HBSS with 1 g/L glucose and 20 mM HEPES at pH 7.4. A freshly prepared 75 μM aqueous solution of the appropriate oxonol was made prior to an experiment from a DMSO stock solution. The cells were stained by mixing 100 μL of the oxonol solution with 750 μL of the bath and then adding the diluted solution to the cells. The dye was left for 30–40 minutes at a bath concentration of […]. 1.5 mM β-cyclodextrin in the bath solution was necessary for cell loading of DiSBA-C6-(3). The butyl and ethyl derivatives were water-soluble enough to load cells with out β-cyclodextrin complexation. DiSBA-C10-(3) was loaded in a pH 7.4 solution containing 290 mM sucrose and 10 mM HEPES, 364 mOsm, for 10 min at a bath concentration of […]. DiSBA-C10-(3) labeling was quenched by replacing the bath with HBSS solution. The cells were stained with 15 µg/mL of FL-WGA for 15 minutes. The B104 cells required a 125 µg/mL bath concentration to give satisfactory lectin staining. The excess dyes were removed with repeated washes with HBSS. If the excess ethyl or butyl oxonol derivatives were left in the bath, slow currents and fluorescence changes due to redistribution of the dyes into the cell were observed during depolarizations greater than 1 s. The cardiac myocytes [Henderson, S. A., Spencer, M., Sen, A., Kumar, C., Siddiqui, M. A. Q., and Chien, K. R. 1989. Structure organization, and expression of the rat cardiac myosin light chain-2 gene. J. Biol. Chem. 264:18142–18146] were a gift of Professor Kenneth Chien, UCSD. The Jurkat lymphocyte suspensions were grown in RPMI media with 5% heat inactivated FBS and 1% PS. 15–20 mL aliquots of the cellular suspension were washed three times before and after dye staining by centrifugation at 100×g for 4 minutes followed by additions of fresh HBSS.\nPatch clamp recording were made using an Axopatch 1-D amplifier equipped with a CV-4 headstage from Axon Instruments (Foster City, Calif.). The data were digitized and stored using the PCLAMP software. The pH 7.4 intracellular solution used contained 125 mM potassium gluconate, 1 mM CaCl2.2H2O, 2 mM MgCl2.6H2O, 11 mM EGTA, and 10 mM HEPES. For the B104 cells, 4 mM ATP and 0.5 mM GTP were added.\nThe translocation rates were studied in L-M(TK^−) cells using whole-cell voltage clamp recording. The L-M(TK^−) cells were chosen because they have very low background currents and are easy to patch clamp. These cells have a resting potential of −5 mV and no evident voltage activated currents.\n12.5 ms long voltage steps at 15 mV increments were applied to the cell, from a holding potential of −70 mV. The larger, faster transients due to simple membrane capacitance transient could be minimized using the capacitance and series resistance compensation capabilities of the Axopatch amplifier, allowing the displacement currents to be clearly observed. The currents are due to redistribution of the membrane-bound oxonol in response to 8 depolarizations. The time constant for the displacement current is 2 ms for 120 mV depolarization. Equal amounts of charge move at the onset and conclusion of the voltage step, but in opposite directions, consistent with redistribution of stored ions from one energy minimum to the other across the plasma membrane. Furthermore, the induced capacitance dq/dV from the oxonol movement is calculated to be ˜5 pF for 100 mV depolarization. This value corresponds to roughly one third the membrane capacitance without the dye. […] The optimum density of sodium channels in an unmyelinated nerve. Philos. Trans. R. Soc. […]"}, "L-M(TK^−) cells [2]": {"tested_on": "L-M(TK^−) cells", "test": "Voltage-sensitive FRET fluorescence changes in voltage clamped L-M(TK^−) cells", "type": "cell-based", "procedure": "as §1, with “The excess dyes were removed with repeated washes with HBSS.” left out, “The cardiac myocytes [Henderson, S. A., Spencer, M., Sen, A., Kumar, C., Siddiqui, M. A. Q., and Chien, K. R. 1989. Structure organization, and expression of the rat cardiac myosin light chain-2 gene. J. Biol. Chem. 264:18142–18146] were a gift of Professor Kenneth Chien, UCSD. The Jurkat lymphocyte suspensions were grown in RPMI media with 5% heat inactivated FBS and 1% PS. 15–20 mL aliquots of the cellular suspension were washed three times before and after dye staining by centrifugation at 100×g for 4 minutes followed by additions of fresh HBSS.” left out\n(§2) The fluorescently labeled cells were excited with light from a 75 W xenon lamp passed through 450–490 nm excitation interference filters. […] The long wavelength Texas Red fluorescence was passed through a 605 nm DF55 bandpass filter. Voltage dependent fluorescence changes in single cells were measured using a Nikon microscope attached to a Photoscan II photometer equipped with two R928 PMTs for dual emission recordings. […]"}, "Jurkat cell suspensions": {"tested_on": "Jurkat cell suspensions", "test": "Quenching of FL-WGA fluorescence by oxonol titration in cell suspensions", "type": "cell-based", "conditions": "cells labeled with FL-WGA", "procedure": "(§3) All cells were grown and handled like L-M(TK^−) except where noted. L-M(TK^−) cells were grown in Dulbecco's Modified Eagle Media (Gibco; Grand Island, N.Y.) with 10% fetal bovine serum (FBS) and 1% penicillin streptomycin (PS) (Gemini; Calabasas, Calif.). B104 cells were differentiated with 1 μM retinoic acid for 5 days prior to use. The cells were plated on glass coverslips at least one day before use. The adherent cells were washed and maintained in 2.5–3.0 mL of HBSS with 1 g/L glucose and 20 mM HEPES at pH 7.4. A freshly prepared 75 μM aqueous solution of the appropriate oxonol was made prior to an experiment from a DMSO stock solution. […] If the excess ethyl or butyl oxonol derivatives were left in the bath, slow currents and fluorescence changes due to redistribution of the dyes into the cell were observed during depolarizations greater than 1 s. […]\nTo transduce charge displacements into optical signals, the oxonol fluorescences at the intracellular and extracellular membrane binding sites is made different. Fluorescence asymmetry is created with the introduction of fluorescently labeled lectins bound to the extracellular membrane surface. […] The extinction coefficient and the fluorescence quantum yield of FL-WGA were measured to be 222,000 M^−1cm^−1 (˜3 fluorescein/protein) and 0.23, respectively. […]"}, "astrocytoma cells": {"tested_on": "astrocytoma cells", "test": "Pentamethine oxonol translocation, displacement currents in voltage-clamped astrocytoma cells", "type": "cell-based", "conditions": "for displacement current time constant: voltage steps of +20–120 mV; for translocation time constant (crosses the membrane): pentamethine oxonols, DiSBA-C6-(5) value at 20", "source_text": "The membrane translocation rates for the pentamethines are 5–8 times faster than the trimethine analogues. […] The trimethine analogue translocates […] under identical conditions. The displacement currents of DiSBAC6(5) decay very rapidly and are difficult to separate from the cell capacitance. As a result of the large voltage-dependent signal from the Cou-PE/DiSBAC6(5) pair, it was possible to optically measure the speed of voltage response of DiSBAC6(5). The time constant for DiSBAC6(5) translocation was measured optically at 0.383±0.032 ms in response to a 100 mV depolarization step, using FRET from asymmetrically labeled Cou-PE. The enhanced translocation rates result from the greater charge delocalization and slightly more hydrophobicity of the pentamethine oxonols. The rapid voltage response of DiSBAC6(5) is the fastest known for a permeant, highly fluorescent molecule. The submillisecond response is fast enough to accurately register action potentials of single neurons."}, "[3]": {"tested_on": "targeted GFP expressing cells", "test": "Temporal response of the GFP/oxonol FRET change", "type": "cell-based", "conditions": "oxonol acceptors; identical to displacement current time constants", "source_text": "The temporal response of the GFP/oxonol FRET change is dependent on the oxonol translocation rate and follows the previously observed trend with oxonol acceptors, faster responses with more hydrophobic acceptors. The measured time constants for the ethyl and butyl oxonol acceptors are ˜50 and ˜5 ms respectively in the targeted GFP expressing cells. The FRET response and the electrophysiologically measured displacement currents have identical time constants. The measured response times are 2–4 fold faster than previously reported and may be a property of the cells used or from a slight difference in temperature."}, "B104 neuroblastoma cells": {"tested_on": "B104 neuroblastoma cells", "test": "Voltage-sensitive FRET in differentiated B104 neuroblastoma cells", "type": "cell-based", "conditions": "oxonol as FRET donor to Cy5 labeled PE", "procedure": "as §3, §2"}, "1321N astrocytoma cells": {"tested_on": "1321N astrocytoma cells", "test": "Voltage-sensitive FRET fluorescence changes in voltage clamped astrocytoma cells", "type": "cell-based", "conditions": "100 mV depolarization step, FRET from asymmetrically labeled Cou-PE", "procedure": "as §3, §2"}, "neuroblastoma": {"tested_on": "neuroblastoma", "conditions": "cited from earlier work"}, "[4]": {"conditions": "voltage-clamped fibroblasts, 100 mV depolarization at 20 C"}}}
{"compound": "CCCCN1C(=O)C(=CC=Cc2c(O)n(CCCC)c(=S)n(CCCC)c2=O)C(=O)N(CCCC)C1=S", "note": "[DiSBA-C4-(3), Bis-(1,3-dibutyl-2-thiobarbiturate)-trimethineoxonol]", "values": [{"measurement": "displacement current time constant", "setting": "L-M(TK^−) cells [1]; 20 C", "value": "~18", "unit": "ms"}, {"measurement": "activation energy of translocation", "setting": "L-M(TK^−) cells [2]; from time constants at 20 C and 29 C", "value": "~17", "unit": "kcal/mol"}, {"measurement": "lectin fluorescence intensity quenched", "setting": "Jurkat cell suspensions", "value": "up to 30%"}, {"measurement": "displacement current time constant", "setting": "astrocytoma cells", "value": "~18", "unit": "ms"}, {"measurement": "time constant of the FRET response", "setting": "[3]", "value": "~5", "unit": "ms"}]}
{"compound": "CCCCN1C(=O)C(=CC=CC=Cc2c(O)n(CCCC)c(=S)n(CCCC)c2=O)C(=O)N(CCCC)C1=S", "note": "[DiSBA-C4-(5)]", "values": [{"measurement": "translocation rate relative to the trimethine oxonol analogues", "setting": "astrocytoma cells", "value": "six times faster than the corresponding trimethine oxonol"}, {"measurement": "translocation time constant (crosses the membrane)", "setting": "astrocytoma cells", "value": "< 3", "unit": "ms"}, {"measurement": "displacement current time constant", "setting": "astrocytoma cells", "value": "~2", "unit": "ms"}]}
{"compound": "CCCCCCN1C(=O)C(=CC=Cc2c(O)n(CCCCCC)c(=S)n(CCCCCC)c2=O)C(=O)N(CCCCCC)C1=S", "note": "[DiSBA-C6-(3), (1,3-dihexyl-2-thiobarbiturate)trimethine oxonol]", "values": [{"measurement": "time constant for the displacement current", "setting": "L-M(TK^−) cells [1]; 120 mV depolarization, holding potential −70 mV, 20 C", "value": 2, "unit": "ms"}, {"measurement": "max, time constant for translocation at V=Vh", "setting": "L-M(TK^−) cells [1]; fit to Eq. 2, FIG. 5, Vh=−5 mV and β=0.42", "value": 2.9, "unit": "ms"}, {"measurement": "translocation time constant", "setting": "L-M(TK^−) cells [1]", "value": "< 3", "unit": "ms"}, {"measurement": "displacement current time constant", "setting": "L-M(TK^−) cells [1]; [4]", "value": "about 2 ms"}, {"measurement": "response time (in words)", "setting": "L-M(TK^−) cells [2]; oxonol as FRET donor to TR-WGA", "value": "same response time as FL-WGA/DiSBA-C6-(3)"}, {"measurement": "signal change (in words)", "setting": "L-M(TK^−) cells [2]; oxonol as FRET donor to TR-WGA", "value": "only one half that for FL-WGA/DiSBA-C6-(3)"}, {"measurement": "ratio changes", "setting": "B104 neuroblastoma cells", "value": "5–15 %/100 mV"}]}
{"compound": "CCCCCCN1C(=O)C(=CC=CC=Cc2c(O)n(CCCCCC)c(=S)n(CCCCCC)c2=O)C(=O)N(CCCCCC)C1=S", "note": "[DiSBA-C6-(5), Bis-(1,3-dihexyl-2-thiobarbiturate)-pentamethineoxonol]", "values": [{"measurement": "time constant for translocation, measured optically", "setting": "1321N astrocytoma cells", "value": "0.383 ± 0.032", "unit": "ms"}, {"measurement": "response time", "setting": "astrocytoma cells", "value": "less than 1 ms"}, {"measurement": "translocation time constant (crosses the membrane)", "setting": "astrocytoma cells", "value": "~0.4", "unit": "ms"}]}
{"compound": "CCCCCCCCCCN1C(=O)C(=CC=Cc2c(O)n(CCCCCCCCCC)c(=S)n(CCCCCCCCCC)c2=O)C(=O)N(CCCCCCCCCC)C1=S", "note": "[DiSBA-C10-(3)]", "values": [{"measurement": "displacement currents (in words)", "setting": "L-M(TK^−) cells [1]; compared with DiSBA-C6-(3), 20 C", "value": "approximately the same speed"}, {"measurement": "translocation time constant", "setting": "L-M(TK^−) cells [1]", "value": "< 2", "unit": "ms"}, {"measurement": "displacement current time constant", "setting": "L-M(TK^−) cells [1]; [4]", "value": "about 2 ms"}]}
{"compound": "CCCCCN(CCCCC)c1ccc(/C=C/C=C/c2cc[n+](CCCCS(=O)(=O)[O-])cc2)cc1", "note": "[RH-421]", "values": [{"measurement": "fluorescence change", "setting": "neuroblastoma", "value": 21, "unit": "% /100 mV"}]}
